Results as given in publication PMC11583597, “Brain uptake pharmacokinetics of albiglutide, dulaglutide, tirzepatide, and DA5-CH in the search for new treatments of Alzheimer’s and Parkinson’s diseases” (Tissue Barriers, 2023).

How the values were obtained:
[1] = Long-term (6 h) measurement of brain uptake; type: in vivo, male CD-1 mice; conditions: mouse iv 125I-IRA, 6 h circulation; corrected for vascular space and degradation; estimated
Protocol: Substances that are enzymatically stable in blood and have slow clearance from the circulation can slowly enter the brain using the extracellular pathways.[63],[64] […] Albumin enters the brain by extracellular pathways,[70] and so we used albumin in two ways: we used ^99mTc-Alb circulating for 10 min to measure vascular space and ^99mTc-Alb circulating for 6 h to measure brain uptake by extracellular pathways. This is similar to the time-differential methodology developed by Poduslo and Curran to measure a substance’s vascular space and its uptake rate.[71] Following anesthetization, the jugular vein and right carotid artery were exposed. Mice were given an iv injection of 0.1% BSA-LR containing 1 × 10^6 cpm of ^125I-IRA or 5 × 10^5 cpm of ^99mTc-Alb, which circulated for 6 h. Mice receiving only the ^125I-IRA were given an injection of 5 × 10^5 cpm of ^99mTc-Alb 10 min prior to the end of the 6 h circulation time to act as a vascular marker. A separate set of mice received an iv injection of both 1 × 10^6 cpm of ^125I-IRA and 5 × 10^5 cpm of ^99mTc-Alb that circulated for 10 min. Following the 10 min or 6 h circulation time points, blood and brain were collected as described above. Thus, we had B/S ratios for ^99mTc-Alb measuring vascular space (10 min circulation time) and B/S ratios for ^99mTc-Alb measuring vascular space plus uptake by the extracellular pathways (6 h circulation time) which could be compared to the B/S ratios for the ^125I-IRAs after 10 min and 6 h of circulation.
Immediately after counting the radioactivity, the blood and brains from the 10 min and 6 h time points were processed as described in Section 2.5 for in vivo stability. For further comparison, data from the 1 h time point were taken from the original pharmacokinetic uptake study. The ^125I-IRA brain % acid precipitation (%AP) was divided by the ^125I-IRA serum %AP at each time point to calculate the %AP B/S ratio. This value was multiplied by the B/S ratio for each ^125I-IRA to correct for degradation over the 10 min, 1 h, or 6 h time periods. […]

[2] = IRAs of the earlier study; cited from earlier work
Protocol: The rank order of IRAs showing significant brain uptake 1 h after iv injection with respect to AUCs is similar, but not identical to the rank order of their Ki’s (see Figures 5b and 3b). Less similar is the rank order of IRAs for uptake into brain parenchyma defined as the percent reaching the brain that was in its parenchyma vs. its capillaries. The rank order of parenchymal uptake was specifically DA4-JC (89.7%) = albiglutide (BAF) (89.4%) > DA3-CH (86%) > exenatide (84.2%) > Peptide 17 (73.2%) > lixisenatide (66.8%) > dulaglutide (BAF) (61.8%) > DA5-CH (57.6%) > Peptide 21 (43.6%) > liraglu ...

[3] = reported; cited from earlier work
[4] = cited from earlier work; for Brain influx within 1 h of iv injection (detection): mouse iv, radiolabeled IRA, earlier study
Text: The unidirectional blood-to-brain influx rate (Ki) calculated from Figure 2c for all four IRAs tested is graphed with previously calculated Ki’s for other IRAs[50] in Figure 3 by rank.

[5] = rat, 1 hour after iv, LC-MS/MS, mean, cited from earlier work
Protocol: This may reflect in part the sensitivity of our method using small amounts of radiolabeled peptides given the results of a recent study on semaglutide. That study used a novel liquid chromatography-tandem mass spectroscopy (LC-MS/MS) method to measure brain levels of semaglutide in adult male Sprague-Dawley rats injected iv 1 hour earlier with about […] of the unlabeled drug per animal. Detectable ...

Molecule | Amount present in brain at 6 h (AP corrected delta %Inj/g) [1] | Percent reaching the brain that was in parenchyma vs. capillaries [2] | half-lives in human serum [3] | Brain influx within 1 h of iv injection (detection) [4] | semaglutide level in the cerebrum ([5]; cerebrum = cerebral cortex + striatum + amygdala + olfactory bulb) | semaglutide level in the cerebellum [5] | semaglutide level in the hypothalamus [5] | semaglutide level in the brain as a whole ([5]; no vascular wash-out) | Blood to Brain Unidirectional Influx Rate (Ki) ([4]; mouse, in vivo, iv)
CCCCCCCCCCCCCCCC(=O)N[C@@H](CCC(=O)NCCCC[C@H](NC(=O)[C@H](C)NC(=O)[C@H](C)NC(=O)[C@H](CCC(N)=O)NC(=O)CNC(=O)[C@H](CCC(=O)O)NC(=O)[C@H](CC(C)C)NC(=O)[C@H](Cc1ccc(O)cc1)NC(=O)[C@H](CO)NC(=O)[C@H](CO)NC(=O)[C@@H](NC(=O)[C@H](CC(=O)O)NC(=O)[C@H](CO)NC(=O)[C@@H](NC(=O)[C@H](Cc1ccccc1)NC(=O)[C@@H](NC(=O)CNC(=O)[C@H](CCC(=O)O)NC(=O)[C@H](C)NC(=O)[C@@H](N)Cc1cnc[nH]1)[C@@H](C)O)[C@@H](C)O)C(C)C)C(=O)N[C@@H](CCC(=O)O)C(=O)N[C@@H](Cc1ccccc1)C(=O)N[C@H](C(=O)N[C@@H](C)C(=O)N[C@@H](Cc1c[nH]c2ccccc12)C(=O)N[C@@H](CC(C)C)C(=O)N[C@H](C(=O)N[C@@H](CCCNC(=N)N)C(=O)NCC(=O)N[C@@H](CCCNC(=N)N)C(=O)NCC(=O)O)C(C)C)[C@@H](C)CC)C(=O)O [Liraglutide] | 0.03 %Inj/g | 28.7% | 11 to 13 h | did not detect brain influx |  |  |  |  | 
CC[C@H](C)[C@H](NC(=O)[C@H](Cc1ccccc1)NC(=O)[C@H](CCC(=O)O)NC(=O)[C@H](CCCCNC(=O)COCCOCCNC(=O)COCCOCCNC(=O)CC[C@H](NC(=O)CCCCCCCCCCCCCCCCC(=O)O)C(=O)O)NC(=O)[C@H](C)NC(=O)[C@H](C)NC(=O)[C@H](CCC(N)=O)NC(=O)CNC(=O)[C@H](CCC(=O)O)NC(=O)[C@H](CC(C)C)NC(=O)[C@H](Cc1ccc(O)cc1)NC(=O)[C@H](CO)NC(=O)[C@H](CO)NC(=O)[C@@H](NC(=O)[C@H](CC(=O)O)NC(=O)[C@H](CO)NC(=O)[C@@H](NC(=O)[C@H](Cc1ccccc1)NC(=O)[C@@H](NC(=O)CNC(=O)[C@H](CCC(=O)O)NC(=O)C(C)(C)NC(=O)[C@@H](N)Cc1cnc[nH]1)[C@@H](C)O)[C@@H](C)O)C(C)C)C(=O)N[C@@H](C)C(=O)N[C@@H](Cc1c[nH]c2ccccc12)C(=O)N[C@@H](CC(C)C)C(=O)N[C@H](C(=O)N[C@@H](CCCNC(=N)N)C(=O)NCC(=O)N[C@@H](CCCNC(=N)N)C(=O)NCC(=O)O)C(C)C [Semaglutide] | 0.022 %Inj/g |  | ~ 160 h | did not detect brain influx | 7.7 ng/g | 12.6 ng/g | 27 ng/g | 12.0 ng/g | 
lixisenatide: FDA-approved IRA tested in the earlier study (ref 50) |  | 66.8% |  |  |  |  |  |  | 0.3271 µL/g/min
